Active and inactive are the calls of the source. No cut-off for these calls is given here.
Assays:
Settings in all cases: time 21.0 day
Leishmania infantum [1] = assay: Antileishmanial activity against Leishmania infantum infected in BALB/c mouse model of visceral leishmaniasis assessed as parasite growth in liver at 50 mg/kg/day, IM administered for 21 days; format: functional, organism-based
Leishmania infantum [2] = assay: Antileishmanial activity against Leishmania infantum infected in BALB/c mouse model of visceral leishmaniasis assessed as footpad lesion development at 50 mg/kg/day, IM administered for 21 days and measured after 11 weeks by Giemsa staining based analysis (reference value: 20.71 +/- 0.48); format: functional
Leishmania infantum [3] = assay: Antileishmanial activity against Leishmania infantum infected in BALB/c mouse model of cutaneous leishmaniasis assessed as footpad lesion development at 50 mg/kg/day, ID administered for 21 days and measured after 20 weeks by Giemsa staining based analysis (reference value: 4.54 +/- 0.04); format: functional
Leishmania infantum [4] = assay: Antileishmanial activity against Leishmania infantum infected in BALB/c mouse model of visceral leishmaniasis assessed as footpad lesion development at 50 mg/kg/day, IM administered for 21 days and measured after 9 weeks by Giemsa staining based analysis (reference value: 22.75 +/- 0.71); format: functional
Leishmania infantum [5] = assay: Antileishmanial activity against Leishmania infantum infected in BALB/c mouse model of visceral leishmaniasis assessed as footpad lesion development at 50 mg/kg/day, IM administered for 21 days and measured after 8 weeks by Giemsa staining based analysis (reference value: 23.84 +/- 0.93); format: functional
Leishmania infantum [6] = assay: Antileishmanial activity against Leishmania infantum infected in BALB/c mouse model of visceral leishmaniasis assessed as footpad lesion development at 50 mg/kg/day, IM administered for 21 days and measured after 4 weeks by Giemsa staining based analysis (reference value: 28.01 +/- 0.65); format: functional
Leishmania infantum [7] = assay: Antileishmanial activity against Leishmania infantum infected in BALB/c mouse model of cutaneous leishmaniasis assessed as footpad lesion development at 50 mg/kg/day, ID administered for 21 days and measured after 24 weeks by Giemsa staining based analysis (reference value: 4.90 +/- 0.02); format: functional
Leishmania infantum [8] = assay: Antileishmanial activity against Leishmania infantum infected in BALB/c mouse model of cutaneous leishmaniasis assessed as footpad lesion development at 50 mg/kg/day, ID administered for 21 days and measured after 28 weeks by Giemsa staining based analysis (reference value: 4.92 +/- 0.01); format: functional
Leishmania infantum [9] = assay: Antileishmanial activity against Leishmania infantum infected in BALB/c mouse model of visceral leishmaniasis assessed as footpad lesion development at 50 mg/kg/day, IM administered for 21 days and measured after 10 weeks by Giemsa staining based analysis (reference value: 21.58 +/- 0.74); format: functional
Leishmania infantum [10] = assay: Antileishmanial activity against Leishmania infantum infected in BALB/c mouse model of cutaneous leishmaniasis assessed as footpad lesion development at 50 mg/kg/day, ID administered for 21 days and measured after 32 weeks by Giemsa staining based analysis (reference value: 4.91 +/- 0.01); format: functional
Leishmania infantum [11] = assay: Antileishmanial activity against Leishmania infantum infected in BALB/c mouse model of visceral leishmaniasis assessed as footpad lesion development at 50 mg/kg/day, IM administered for 21 days and measured after 5 weeks by Giemsa staining based analysis (reference value: 27.04 +/- 0.65); format: functional
Leishmania infantum [12] = assay: Antileishmanial activity against Leishmania infantum infected in BALB/c mouse model of cutaneous leishmaniasis assessed as footpad lesion development at 50 mg/kg/day, ID administered for 21 days and measured after 12 weeks by Giemsa staining based analysis (reference value: 3.61 +/- 0.03); format: functional
Leishmania infantum [13] = assay: Antileishmanial activity against Leishmania infantum infected in BALB/c mouse model of visceral leishmaniasis assessed as footpad lesion development at 50 mg/kg/day, IM administered for 21 days and measured after 7 weeks by Giemsa staining based analysis (reference value: 24.85 +/- 0.88); format: functional
Leishmania infantum [14] = assay: Antileishmanial activity against Leishmania infantum infected in BALB/c mouse model of cutaneous leishmaniasis assessed as footpad lesion development at 50 mg/kg/day, ID administered for 21 days and measured after 6 weeks by Giemsa staining based analysis (reference value: 2.40 +/- 0.03); format: functional
Leishmania infantum [15] = assay: Antileishmanial activity against Leishmania infantum infected in BALB/c mouse model of cutaneous leishmaniasis assessed as footpad lesion development at 50 mg/kg/day, ID administered for 21 days and measured after 22 weeks by Giemsa staining based analysis (reference value: 4.71 +/- 0.04); format: functional
Leishmania infantum [16] = assay: Antileishmanial activity against Leishmania infantum infected in BALB/c mouse model of visceral leishmaniasis assessed as footpad lesion development at 50 mg/kg/day, IM administered for 21 days and measured after 3 weeks by Giemsa staining based analysis (reference value: 28.94 +/- 0.59); format: functional
Leishmania infantum [17] = assay: Antileishmanial activity against Leishmania infantum infected in BALB/c mouse model of cutaneous leishmaniasis assessed as footpad lesion development at 50 mg/kg/day, ID administered for 21 days and measured after 14 weeks by Giemsa staining based analysis (reference value: 3.88 +/- 0.03); format: functional
Leishmania infantum [18] = assay: Antileishmanial activity against Leishmania infantum infected in BALB/c mouse model of cutaneous leishmaniasis assessed as parasite growth in foodpad at 50 mg/kg/day, ID administered for 21 days; format: functional, organism-based
Leishmania infantum [19] = assay: Antileishmanial activity against Leishmania infantum infected in BALB/c mouse model of cutaneous leishmaniasis assessed as footpad lesion development at 50 mg/kg/day, ID administered for 21 days and measured after 16 weeks by Giemsa staining based analysis (reference value: 4.20 +/- 0.03); format: functional
Leishmania infantum [20] = assay: Antileishmanial activity against Leishmania infantum infected in BALB/c mouse model of cutaneous leishmaniasis assessed as parasite growth in spleen at 50 mg/kg/day, ID administered for 21 days; format: functional, organism-based
Leishmania infantum [21] = assay: Antileishmanial activity against Leishmania infantum infected in BALB/c mouse model of cutaneous leishmaniasis assessed as footpad lesion development at 50 mg/kg/day, ID administered for 21 days and measured after 4 weeks by Giemsa staining based analysis (reference value: 1.90 +/- 0.03); format: functional
Leishmania infantum [22] = assay: Antileishmanial activity against Leishmania infantum infected in BALB/c mouse model of visceral leishmaniasis assessed as footpad lesion development at 50 mg/kg/day, IM administered for 21 days and measured after 1 week by Giemsa staining based analysis (reference value: 30.43 +/- 0.60); format: functional
Leishmania infantum [23] = assay: Antileishmanial activity against Leishmania infantum infected in BALB/c mouse model of cutaneous leishmaniasis assessed as footpad lesion development at 50 mg/kg/day, ID administered for 21 days and measured after 26 weeks by Giemsa staining based analysis (reference value: 4.91 +/- 0.01); format: functional
Leishmania infantum [24] = assay: Antileishmanial activity against Leishmania infantum infected in BALB/c mouse model of cutaneous leishmaniasis assessed as footpad lesion development at 50 mg/kg/day, ID administered for 21 days and measured after 30 weeks by Giemsa staining based analysis (reference value: 4.92 +/- 0.01); format: functional
Leishmania infantum [25] = assay: Antileishmanial activity against Leishmania infantum infected in BALB/c mouse model of cutaneous leishmaniasis assessed as footpad lesion development at 50 mg/kg/day, ID administered for 21 days and measured after 2 weeks by Giemsa staining based analysis (reference value: 1.61 +/- 0.03); format: functional
Leishmania infantum [26] = assay: Antileishmanial activity against Leishmania infantum infected in BALB/c mouse model of visceral leishmaniasis assessed as footpad lesion development at 50 mg/kg/day, IM administered for 21 days and measured after 2 weeks by Giemsa staining based analysis (reference value: 29.73 +/- 0.63); format: functional
Leishmania infantum [27] = assay: Antileishmanial activity against Leishmania infantum infected in BALB/c mouse model of visceral leishmaniasis assessed as parasite growth in spleen at 50 mg/kg/day, IM administered for 21 days; format: functional, organism-based
Leishmania infantum [28] = assay: Antileishmanial activity against Leishmania infantum infected in BALB/c mouse model of cutaneous leishmaniasis assessed as footpad lesion development at 50 mg/kg/day, ID administered for 21 days and measured after 10 weeks by Giemsa staining based analysis (reference value: 3.40 +/- 0.03); format: functional
Leishmania infantum [29] = assay: Antileishmanial activity against Leishmania infantum infected in BALB/c mouse model of cutaneous leishmaniasis assessed as footpad lesion development at 50 mg/kg/day, ID administered for 21 days and measured after 18 weeks by Giemsa staining based analysis (reference value: 4.42 +/- 0.03); format: functional
Leishmania infantum [30] = assay: Antileishmanial activity against Leishmania infantum infected in BALB/c mouse model of cutaneous leishmaniasis assessed as parasite growth in liver at 50 mg/kg/day, ID administered for 21 days; format: functional, organism-based
Leishmania infantum [31] = assay: Antileishmanial activity against Leishmania infantum infected in BALB/c mouse model of cutaneous leishmaniasis assessed as footpad lesion development at 50 mg/kg/day, ID administered for 21 days and measured after 8 weeks by Giemsa staining based analysis (reference value: 3.13 +/- 0.03); format: functional
Leishmania infantum [32] = assay: Antileishmanial activity against Leishmania infantum infected in BALB/c mouse model of visceral leishmaniasis assessed as footpad lesion development at 50 mg/kg/day, IM administered for 21 days and measured after 6 weeks by Giemsa staining based analysis (reference value: 25.81 +/- 0.84); format: functional

Meglumine antimoniate
Activity (Leishmania infantum [1]): Active | Activity (Leishmania infantum [2]): 30.3 | Activity (Leishmania infantum [3]): 4.53 | Activity (Leishmania infantum [4]): 28.7 | Activity (Leishmania infantum [5]): 27.7 | Activity (Leishmania infantum [6]): 27.4 | Activity (Leishmania infantum [7]): 4.9 | Activity (Leishmania infantum [8]): 3.49 | Activity (Leishmania infantum [9]): 29.3 | Activity (Leishmania infantum [10]): 1.7 | Activity (Leishmania infantum [11]): 26.3 | Activity (Leishmania infantum [12]): 3.61 | Activity (Leishmania infantum [13]): 26.7 | Activity (Leishmania infantum [14]): 2.39 | Activity (Leishmania infantum [15]): 4.69 | Activity (Leishmania infantum [16]): 28.5 | Activity (Leishmania infantum [17]): 3.84 | Activity (Leishmania infantum [18]): Active | Activity (Leishmania infantum [19]): 4.2 | Activity (Leishmania infantum [20]): Active | Activity (Leishmania infantum [21]): 1.87 | Activity (Leishmania infantum [22]): 30.8 | Activity (Leishmania infantum [23]): 4.69 | Activity (Leishmania infantum [24]): 2.16 | Activity (Leishmania infantum [25]): 1.56 | Activity (Leishmania infantum [26]): 29.4 | Activity (Leishmania infantum [27]): Active | Activity (Leishmania infantum [28]): 3.4 | Activity (Leishmania infantum [29]): 4.42 | Activity (Leishmania infantum [30]): Active | Activity (Leishmania infantum [31]): 3.09 | Activity (Leishmania infantum [32]): 25.3
